The source of these data is ChEMBL document CHEMBL1201862, “PubChem BioAssay data set” (2004).

Holding throughout (experiment): NCI tumour cell line growth inhibition, 48 h
Assay [1] has as its system CAKI-1.
The subject of assay [2] is DMS-273.
Assay [3] has as its system HCC 2998.
Assay [4] relates to HCT-116.
The test system of assay [5] is HT-29.
Assay [6] relates to IGROV-1.
Assay [7] has as its system Malme-3M.
The test system of assay [8] is OVCAR-3.
Assay [9] concerns OVCAR-5.
Assay [10] relates to RPMI-8226.
The test system of assay [11] is SK-MEL-5.
Assay [12] deals with SK-OV-3.
The test system of assay [13] is SR.
Assay [14] relates to TK-10.
For assay [15], the system named is U-251.
Assay [16] deals with UO-31.
Assay [17] has as its system BT-549.
Assay [18] concerns NCI/ADR-RES.
Assay [19] deals with PC-3.
Assay [20] deals with T47D.

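The compound was tested at five concentrations on cells cultured in 96-well plates, with a 48-hour exposure period. GI50 = concentration required for 50% inhibition of growth.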 Active and inactive are the calls of the source. Cut-off read from the data, not from the text of the source: active = GI50 up to about 1.1 µM and inactive = higher.

Take `CCOC(=O)C(CNc1ccc(O)cc1)NC(=O)c1ccccc1` (stereo not given): the GI50 in [1] was > 100 µM (inactive); in [2] it was 65 µM (inactive); in assay [3], > 100 µM (inactive); in assay [4], > 100 µM (inactive); in assay [5], > 100 µM (inactive); in [6] it was > 100 µM (inactive). Further, the GI50 in assay [7] was > 100 µM (inactive); in [8] it was > 100 µM (inactive); in [9], > 100 µM (inactive); in [10], 53.6 µM (inactive); in assay [11], > 100 µM (inactive); in assay [12], > 100 µM (inactive). The GI50 in assay [13] was > 61 µM (inactive); in assay [14] it was > 100 µM (inactive); in assay [15], > 100 µM (inactive); in assay [16], > 100 µM (inactive).

With `CCN1CCC(O)(c2ccccc2)C(C(=O)c2ccccc2)C1` (stereo not given), the GI50 was 14 µM (inactive) in assay [1]; > 94.4 µM (inactive) in [2]; > 100 µM (inactive) in assay [3]; 17.1 µM (inactive) in assay [4]; 20.4 µM (inactive) in [5]; > 100 µM (inactive) in assay [6]. In addition, the GI50 is 21.1 µM (inactive) in assay [7]; 16.3 µM (inactive) in assay [8]; 18.2 µM (inactive) in assay [9]; 6.35 µM (inactive) in [10]; 33.7 µM (inactive) in assay [11]; > 100 µM (inactive) in [12]. Also, the GI50 was 20.8 µM (inactive) in assay [13], 23.2 µM (inactive) in assay [14], > 100 µM (inactive) in assay [15] and > 46.2 µM (inactive) in assay [16].

`NNC(=O)C1CCC(=O)N1S(=O)(=O)c1ccccc1` (stereo not given): the GI50 in assay [1], in [2], in [3], in [4], in assay [5] and in [6] was > 100 µM (inactive) in each case. The GI50 in assay [7], in [8], in assay [9], in assay [10], in assay [11] and in [12] was > 100 µM (inactive) throughout. For the same molecule, the GI50 in assay [13], in assay [14], in assay [15] and in assay [16] was > 100 µM (inactive) each time.

Regarding `C[C@H]1C[C@@H]2[C@H]([C@@H](O)C[C@@]3(C)[C@H]2CC[C@]3(O)C(=O)CO)[C@@]2(C)C=CC(=O)C=C12` [METHYLPREDNISOLONE], the GI50 in assay [1], in [2], in assay [3], in assay [4], in assay [5] and in assay [6] was > 100 µM (inactive) in each case. Besides, the GI50 in assay [7], in assay [8], in [9], in assay [10], in assay [11] and in [12] was > 100 µM (inactive) each time. The GI50 in assay [13], in assay [14] and in assay [16] was > 100 µM (inactive) in each case.

Regarding `Cc1c2cc[n+](C)cc2c(C)c2c1oc1ccccc12`, the GI50 in assay [17] was 0.608 µM (active); in [1] it was 28.4 µM (inactive); in assay [2], 3.57 µM (inactive); in assay [3], 2.75 µM (inactive); in [4], 6.43 µM (inactive); in assay [5], 14.4 µM (inactive). Moreover, the GI50 in assay [6] was 4.74 µM (inactive); in assay [7], 1.6 µM (inactive); in [18] it was > 100 µM (inactive); in assay [8], 2.65 µM (inactive); in assay [9], 15.6 µM (inactive); in assay [19], 6.38 µM (inactive). Moreover, the GI50 in assay [10] is 4.2 µM (inactive); in assay [11], 3.41 µM (inactive); in assay [12], 14.7 µM (inactive); in [13], 4.85 µM (inactive); in assay [14], 31.4 µM (inactive); in assay [15], 0.652 µM (active). In addition, the GI50 in assay [16] is 68.7 µM (inactive).

In the case of `C/C(=N\NC(=S)N1CCC1)c1ccccn1`, the GI50 in assay [17] was 11.5 µM (inactive); in assay [1], 0.0398 µM (active); in assay [2], 0.01 µM (active); in assay [3], 0.374 µM (active); in assay [4], 0.01 µM (active); in assay [5] it was 0.01 µM (active). Also, the GI50 was 0.01 µM (active) in [6]; 0.175 µM (active) in [7]; 0.00332 µM (active) in assay [18]; 0.01 µM (active) in assay [8]; 0.0512 µM (active) in assay [19]; 0.01 µM (active) in assay [10]. For the same molecule, the GI50 is < 0.0196 µM (active) in assay [11]; < 0.0131 µM (active) in assay [12]; 0.01 µM (active) in [13]; 0.00137 µM (active) in assay [20]; 1.29 µM (inactive) in [14]; 0.01 µM (active) in assay [15]. In [16], the GI50 is 0.427 µM (active).

For the molecule `O=C1C=C2S[C@H]3C[C@]2(C=C1Br)C1=C(N3)C(=O)c2[nH]cc3c2C1=NCC3` [(+)-DISCORHABDIN B], the GI50 in assay [1] is 1.69 µM (inactive); in assay [2] it was 1.17 µM (inactive); in assay [3], 2.3 µM (inactive); in assay [4] it was 0.103 µM (active); in assay [5], 0.344 µM (active); in [6], 1.53 µM (inactive). In addition, the GI50 in assay [7] is 0.115 µM (active); in assay [18], 0.205 µM (active); in assay [8], 0.347 µM (active); in assay [9], 1.85 µM (inactive); in [19], 1.83 µM (inactive); in assay [10], 0.305 µM (active). Besides, the GI50 in assay [11] is 1.04 µM (active); in [12] it was 5.62 µM (inactive); in assay [13] it was 2.69 µM (inactive); in assay [20], 0.283 µM (active); in [14], 1.4 µM (inactive); in [15], 1.75 µM (inactive). Besides, the GI50 in assay [16] is 1.57 µM (inactive).

Regarding `CN(C)CC1CCC(CN(C)C)C1=O` (stereo not given), the GI50 in assay [1] was 0.736 µM (active); in [2] it was 17.1 µM (inactive); in [3], 18 µM (inactive); in assay [4], 2.27 µM (inactive); in assay [5], 6.64 µM (inactive); in assay [6] it was 7.94 µM (inactive). The GI50 in assay [7] was 1.73 µM (inactive); in [18], 23 µM (inactive); in assay [8] it was 3.81 µM (inactive); in assay [9], 9.73 µM (inactive); in [19] it was 1.98 µM (inactive); in assay [10], 0.541 µM (active). The GI50 in assay [11] was 8.26 µM (inactive); in assay [12] it was 16.8 µM (inactive); in [13], 2.6 µM (inactive); in [20], 1.39 µM (inactive); in [14], 14.7 µM (inactive); in assay [15] it was 24.3 µM (inactive). Also, the GI50 in assay [16] is 7.67 µM (inactive).

On to `CCCCCCCCCCCCCC1CCC(CC)N1` (stereo not given), for which the GI50 was 15.8 µM (inactive) in assay [1]; 14.5 µM (inactive) in [2]; 2.41 µM (inactive) in [3]; 15.6 µM (inactive) in [4]; 5.81 µM (inactive) in assay [5]; 20.9 µM (inactive) in [6]. Moreover, the GI50 in assay [7] was 18.4 µM (inactive); in assay [8], 16.2 µM (inactive); in assay [9], 16.6 µM (inactive); in [10], 14 µM (inactive); in assay [11] it was 17.8 µM (inactive); in [12], 17 µM (inactive). Also, the GI50 in assay [13] was 18.9 µM (inactive); in [14] it was 17.7 µM (inactive); in [15], 7.41 µM (inactive); in assay [16], 14.2 µM (inactive).
